The source of these data is PMC11222247, “PEGylation renders carnosine resistant to hydrolysis by serum carnosinase and increases renal carnosine levels” (Amino Acids, 2024).

Marks after values point to notes of the source that are not given here.

Series [1] in a line: Pharmacokinetics in kidney of mice after single intravenous injection (LC-MS/MS). Type of series: in vivo, C57BL/6J mice. As to conditions: for AUC: 0 to 240 min sampling; for half-life: 1000 mg/kg i.v. single injection, noncompartmental, naive pooled. The procedure: (§1) Six- to eight-week-old male C57BL/6J (20–25 g) mice were purchased from Sino-British SIPPR/BK Lab Animal Ltd (Shanghai, China). After ad libitum feeding for one week, the mice were randomly divided into three groups: the control group (n = 3, saline treated), the PEG-car treated group (n = 3) and the L-carnosine treated group (n = 3). Hereof, each mouse was respectively injected intravenously (i.v.) with saline, PEG-car (1000 mg/kg) or L-carnosine (1000 mg/kg) through the tail vein. The mice were anaesthetized by the inhalation of isoflurane during the injection. Blood samples were collected in EDTA tubes by cardiac puncture at 0, 5, 15, 30, 60, 120, 240 min after the administration of PEG-car or L-carnosine. Sera were obtained by centrifugation of the blood sample at 6800 g for 6 min at 4 ℃. Right after sacrifice, the mice were perfused by phosphate-buffered saline to remove the remaining blood. The brains and kidneys were carefully isolated thereafter. The tissues were stored at − 80 ℃and the sera were stored at − 20 ℃ untill use.
(§2) PEG-car or L-carnosine levels in serum and tissues were determined by liquid chromatography tandem-mass spectrometry (LC-MS/MS). Warfarin (Sigma-Aldrich, St. Louis, MO, USA) was used as internal standard (IS). The entire procedure for sample and standard preparation was carried out on ice. An aliquot of 20 µL serum or homogenized 40 mg tissue were pipetted into centrifuge tube and then 400 µL methanol was added for protein precipitation. After spiking the IS (40 ng for serum and 4 ng for kidney), the samples were vortexed for 1 min and then centrifuged at 18,000 g for 7 min at 4 ℃. The supernatant was used for the assay. The calibration curves were prepared by spiking the known concentrations of PEG-car or L-carnosine into serum or tissue homogenates obtained from untreated mice.
(§3) The concentrations were measured by a UHPLC system (Shimadzu LC-40D XS, Japan) coupled with electrospray ionization (ESI) and triple quadrupole-ion trap mass spectrometry (AB SCIEX QTRAP® 6500+, Singapore). PEG-car was performed in ACQUITY UPLC BEH C18 column (2.1 mm×50 mm, 1.7 μm, Waters, USA) with a 0.6 mL/min flow rate of mobile phase using gradient elution of ultrapure water (2mM Ammonium acetate (Sinopharm Chemical Reagent Co., Ltd, Shanghai, China) containing 0.1% formic acid, eluent A) and acetonitrile (2mM Ammonium formate (Sinopharm Chemical Reagent Co., Ltd, Shanghai, China) containing 0.1% formic acid, eluent B). The solvent gradient was changed according to the following program: 0–0.01 min 10%B, 0.01–0.6 min 10-90%B, 0.6–1.2 min 90%B, 1.2–1.21 min 90%-10%B, 1.21–1.5 min 10%B. L-carnosine was performed in ACQUITY UPLC BEH Amide column (2.1 mm×50 mm, 1.7 μm, Waters, USA) with a 0.6 mL/min flow rate of mobile phase using gradient elution of ultrapure water (2mM Ammonium acetate containing 0.1% formic acid, eluent A) and acetonitrile (2mM Ammonium formate containing 0.1% formic acid, eluent B). The solvent gradient was as follows: 0–0.01 min 90%B, 0.01–0.6 min 90%-40%B, 0.6–1.2 min 40%B, 1.2–1.21 min 40-90%B, 1.21–1.5 min 90%B. The injection volume was 5 µL. The QTRAP® 6500 + was operated in positive mode, multiple reaction monitoring (MRM) in unit resolution for Q1 and Q3. For detection of PEG-car, three transitions were set with a Q1 mass of 776.4, and Q3 masses of 109.9 (Collision Energy (CE) 119), 126.8 (CE 51), 707.2 (CE 38). For L-carnosine, four transitions were set with a Q1 mass of 227.3, and Q3 masses of 83.1 (CE 53), 110.0(CE 31), 156.2(CE 21), 210.2(CE 16). Pharmacokinetic parameters were calculated by noncompartmental analysis using a sparse sampling and naïve pooled approach (Phoenix WinNonLin 7.0, Certara, Mountain View, CA, USA).

A short description of series [2]: Pharmacokinetics in serum of mice after single intravenous injection (LC-MS/MS). Type of series: in vivo, C57BL/6J mice. The settings on record: for half-life: 1000 mg/kg i.v. single injection, noncompartmental, naive pooled; for AUC: 0 to 240 min sampling. Here is the method: as §1, §2, §3
The target in series [3] is T1, carnosinase-1 (recombinant Human CN-1) (Homo sapiens, UniProt Q96KN2).
T1 construct: purchased Novoprotein Company, Suzhou, China
T1 sequence (Q96KN2 26-507): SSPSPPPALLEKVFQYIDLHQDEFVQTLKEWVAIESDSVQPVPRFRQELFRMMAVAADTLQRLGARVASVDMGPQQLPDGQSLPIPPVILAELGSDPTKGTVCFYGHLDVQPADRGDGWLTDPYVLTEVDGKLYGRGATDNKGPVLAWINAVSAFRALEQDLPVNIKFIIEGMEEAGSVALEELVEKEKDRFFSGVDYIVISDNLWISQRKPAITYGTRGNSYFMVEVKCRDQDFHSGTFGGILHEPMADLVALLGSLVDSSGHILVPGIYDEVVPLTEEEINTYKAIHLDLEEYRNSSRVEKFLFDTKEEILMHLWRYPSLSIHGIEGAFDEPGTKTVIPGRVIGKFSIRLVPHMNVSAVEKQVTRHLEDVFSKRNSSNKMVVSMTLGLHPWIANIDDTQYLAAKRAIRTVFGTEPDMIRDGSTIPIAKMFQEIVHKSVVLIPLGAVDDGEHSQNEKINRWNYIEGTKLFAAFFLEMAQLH
Description: Enzymatic hydrolysis by carnosinase-1 (histidine release, fluorometric assay). Type of series: biochemical. The settings on record: for Fluorescence (proportional to histidine release) on incubation with recombinant CN-1: 1 mM substrate, Tris/HCl 50 mM pH 7.5, 30 °C, 5-80 min, Fig. 3; for Hydrolysis in human serum: as worded in the abstract: human serum. The procedure: The resistance of the PEG-car to the enzymatic hydrolysis by carnosinase-1 was assayed by a previously designed enzymatic activity test (Lenney et al. [1982]). Briefly, PEG, PEG-car and L-carnosine (1 mM) respectively were incubated in Tris/HCl buffer (50 mM, pH 7.5) at 30 °C with carnosinase-1 (recombinant Human CN-1, Novoprotein Company, Suzhou, China). Aliquots of each sample taken after 5, 10, 20, 30, 40, 60, 80 min, and the enzymatic reaction was stopped by addition of 50 µL of 1% trichloroacetic acid (TCA). After addition of 50 µL of 5 mg/mL o-pthaldialdehyde dissolved in 2 M NaOH and incubation for 30 min at 30 °C, the amount of liberated histidine was quantified by fluorometric assay conducted by a multifunctional enzyme marker reader.

The mark [4] stands for this setting: male, C57BL/6J, mouse, iv, read-out: Half-Life.
The mark [5] stands for this setting: male, C57BL/6J, mouse, iv, 1000 mg/kg i.v., at 5 min.

As for `NCCC(=O)N[C@@H](Cc1cnc[nH]1)C(=O)O` [L-carnosine, reference compound], in series [1] (1000 mg/kg i.v.), the CL is given as 1.59^d g/min/kg; the Vss is reported as 208^e g/kg; the AUC (in general, concentration integrated over time) is listed as 518,040^c ng/mg tissue·min. For the same compound, in series [1] (setting [4]), the half-life – broadly, how long it takes for the measured level to halve – came to 1.75 h. Moreover, the concentration in series [1] (setting [5]) peaked (Cmax) at 5.91e+06 ng/g. For the same compound, the clearance (usually the rate of elimination divided by the concentration) in series [2] (male, C57BL/6J, mouse, iv, 1000 mg/kg i.v.) was 15.4 mL/min/kg. Also, in series [2] (setting [4]), the half-life stood at 1.03 h. Also, the AUC in series [2] (male, C57BL/6J, mouse, iv, 1000 mg/kg i.v., read-out: AUC (converted)) is 1080 µg·h/mL. For the same compound, in series [2] (setting [5]), the Cmax (commonly the peak of the concentration-time curve) was found to be 2860 µg/mL. For the same compound, the Vd in series [2] (male, C57BL/6J, mouse, iv, 1000 mg/kg i.v., read-out: Vss) turned out to be 0.606 L/kg. Besides, in series [3], the “Fluorescence (proportional to histidine release) on incubation with recombinant CN-1” value was “fluorescence increased with time” and the “Hydrolysis in human serum” value is “rapidly hydrolyzed”.

For mPEG-carnosine, the CL in series [1] (1000 mg/kg i.v.) is 3.47^d* g/min/kg; in series [2] (1000 mg/kg i.v.), 14.84 mL/min/kg. Further, the Vss in series [1] (1000 mg/kg i.v.) was 830^e* g/kg; in series [2] (1000 mg/kg i.v.), 294* mL/kg. Besides, the half-life in series [1] was 168* min; in series [2], 0.533 h. Moreover, the exposure (AUC) in series [1] (1000 mg/kg i.v.) is listed as 173,340^c* ng/mg tissue·min; in series [2] (1000 mg/kg i.v.) it was 67,730 µg/mL·min. Further, the “Cmax (5 min)” value was 3899^b* ng/mg tissue in series [1] (1000 mg/kg i.v., at 5 min) and 2671 µg/mL in series [2] (1000 mg/kg i.v., at 5 min). The “Fluorescence (proportional to histidine release) on incubation with recombinant CN-1” value in series [3] is listed as “approximately six times lower than that of the carnosine sample”. The “Hydrolysis in human serum” value in series [3] is listed as “highly resistant to hydrolysis”. For the same compound, the “Inhibition of CN-1 activity” value in series [3] (mixture of PEG-car with L-carnosine incubated with recombinant CN-1) is on record as “the activity of CN-1 cannot be inhibited by PEG-car”.
